These results are taken from ChEMBL document CHEMBL5226283, “Reactive Oxygen Species (ROS)-Responsive Prodrugs, Probes, and Theranostic Prodrugs: Applications in the ROS-Related Diseases” (J Med Chem, 2021).

The subject of series [1] is HeLa. In words: Antiproliferative activity against human HeLa cells assessed as cell growth inhibition at 12.5 uM relative to control. The series is classed as functional. More on the design: scale not given: the % may be the effect or the level left.
The subject of series [2] is DNA. In words: Induction of ROS-mediated DNA (unknown origin) ICL formation by measuring rate constant preincubated with compounds followed by H2O2 addition. The series is classed as functional.
The next series deals with SN12C. In words: Antiproliferative activity against human SN12C cells assessed as cell growth inhibition at 10 uM by SRB assay. The series is classed as functional. More on the design: scale not given: the % may be the effect or the level left. On the technique in general: The SRB assay estimates cell density from bound dye.
The subject of series [3] is DNA. In words: Induction of ROS-mediated DNA (unknown origin) assessed as efficiency of ICL formation preincubated with compounds followed by H2O2 addition relative to control. The series is classed as functional.
The subject of series [4] is CAKI-1. In words: Antiproliferative activity against human CAKI-1 cells assessed as cell growth inhibition at 10 uM by SRB assay. The series is classed as functional. More on the design: scale not given: the % may be the effect or the level left.
Series [5] concerns NCI-H460. In words: Antiproliferative activity against human NCI-H460 cells assessed as cell growth inhibition at 10 uM by SRB assay. The series is classed as functional. More on the design: scale not given: the % may be the effect or the level left.
Series [6] has as its system SR. In words: Antiproliferative activity against human SR cells assessed as cell growth inhibition at 10 uM by SRB assay. The series is classed as functional. More on the design: scale not given: the % may be the effect or the level left.
The next series has as its system MIA PaCa-2. In words: Antiproliferative activity against human MIA PaCa-2 cells assessed as cell growth inhibition. The series is classed as functional, cell-based.
For the next series, the system named is WI-38. In words: Cytotoxicity against human WI-38 cells assessed as cell growth inhibition at 5 uM relative to control. The series is classed as functional. More on the design: scale not given: the % may be the effect or the level left.
The next series has as its system KB. In words: Antiproliferative activity against human KB cells assessed as cell growth inhibition at 5 uM relative to control. The series is classed as functional. More on the design: scale not given: the % may be the effect or the level left.
A short description of series [7]: Permeability of compound by PAMPA assay. The series is classed as ADME. The note with it: read-out: permeability.
Series [8] has as its target Matrix metalloproteinase-9 (Homo sapiens, UniProt P14780). In words: Inhibition of MMP9 (unknown origin).
Series [9] in a line: Activation of Nrf2-ARE pathway in LPS-induced human HepG2-ARE-C8 cells. The series is classed as cell-based.
Another series deals with Keap1/Nrf2 (Homo sapiens, UniProt Q14145+Q16236). In words: Inhibition of Keap1-Nrf2 (unknown origin). The series is classed as protein assay.
Chain of Keap1/Nrf2 (Q16236 whole entry): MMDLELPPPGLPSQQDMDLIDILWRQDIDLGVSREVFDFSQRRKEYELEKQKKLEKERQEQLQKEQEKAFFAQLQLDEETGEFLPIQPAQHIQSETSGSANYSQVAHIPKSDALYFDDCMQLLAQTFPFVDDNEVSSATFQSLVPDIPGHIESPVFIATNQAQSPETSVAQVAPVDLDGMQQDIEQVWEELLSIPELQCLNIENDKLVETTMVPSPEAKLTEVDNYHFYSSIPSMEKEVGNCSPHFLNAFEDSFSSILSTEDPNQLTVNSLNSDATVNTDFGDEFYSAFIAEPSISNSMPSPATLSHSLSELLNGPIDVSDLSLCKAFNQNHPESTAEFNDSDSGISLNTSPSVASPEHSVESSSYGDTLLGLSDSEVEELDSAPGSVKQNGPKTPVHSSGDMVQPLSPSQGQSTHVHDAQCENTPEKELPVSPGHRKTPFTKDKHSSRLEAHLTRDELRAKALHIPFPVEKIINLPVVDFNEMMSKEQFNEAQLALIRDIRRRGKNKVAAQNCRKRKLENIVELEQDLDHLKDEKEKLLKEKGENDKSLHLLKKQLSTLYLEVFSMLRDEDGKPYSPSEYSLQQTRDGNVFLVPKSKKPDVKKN
Chain of Keap1/Nrf2 (Q14145 whole entry): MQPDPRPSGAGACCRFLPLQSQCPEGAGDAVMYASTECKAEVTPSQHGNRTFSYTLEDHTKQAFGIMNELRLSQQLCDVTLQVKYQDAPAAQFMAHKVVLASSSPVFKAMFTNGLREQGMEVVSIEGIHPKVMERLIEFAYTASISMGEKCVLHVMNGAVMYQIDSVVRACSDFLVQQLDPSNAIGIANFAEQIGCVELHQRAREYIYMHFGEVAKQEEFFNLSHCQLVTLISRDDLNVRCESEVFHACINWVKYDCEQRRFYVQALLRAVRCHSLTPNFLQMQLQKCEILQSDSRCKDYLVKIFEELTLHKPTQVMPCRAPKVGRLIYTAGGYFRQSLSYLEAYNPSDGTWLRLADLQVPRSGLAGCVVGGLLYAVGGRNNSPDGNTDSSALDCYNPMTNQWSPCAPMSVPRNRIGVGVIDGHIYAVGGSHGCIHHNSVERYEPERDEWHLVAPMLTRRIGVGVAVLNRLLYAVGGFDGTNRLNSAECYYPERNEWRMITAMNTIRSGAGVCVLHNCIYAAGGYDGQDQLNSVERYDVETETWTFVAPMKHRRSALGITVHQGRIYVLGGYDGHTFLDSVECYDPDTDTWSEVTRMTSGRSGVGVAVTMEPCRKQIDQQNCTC
Series [10] in a line: Oral bioavailability in C57BL/6 mouse. The series is classed as ADME, organism-based. To be noted: in vivo.
The next series concerns 4T1. In words: Antiproliferative activity against mouse 4T1 cells assessed as cell growth inhibition. The series is classed as functional, cell-based.
Series [11] concerns A549. In words: Antiproliferative activity against human A549 cells assessed as cell growth inhibition. The series is classed as functional, cell-based.
The test system of the next series is MOLT-4. In words: Antiproliferative activity against human MOLT-4 cells assessed as cell growth inhibition. The series is classed as functional.
The subject of another series is HOP-92. In words: Antiproliferative activity against human HOP-92 cells assessed as cell growth inhibition. The series is classed as functional.
The next series relates to NCI-H522. In words: Antiproliferative activity against human NCI-H522 cells assessed as cell growth inhibition. The series is classed as functional.
Another series concerns UACC-62. In words: Antiproliferative activity against human UACC-62 cells assessed as cell growth inhibition. The series is classed as functional.
The test system of a further series is LOX IMVI. In words: Antiproliferative activity against human LOX IMVI cells assessed as cell growth inhibition. The series is classed as functional.
Series [12] has as its system SR. In words: Antiproliferative activity against human SR cells assessed as cell growth inhibition. The series is classed as functional.
For the next series, the system named is MCF7. In words: Antiproliferative activity against human MCF7 cells assessed as cell growth inhibition. The series is classed as functional.
Another series deals with 786-0. In words: Antiproliferative activity against human 786-0 cells assessed as cell growth inhibition. The series is classed as functional.
Another series has as its system HL-60(TB). In words: Antiproliferative activity against human HL-60(TB) cells assessed as cell growth inhibition. The series is classed as functional.
The subject of series [13] is CAKI-1. In words: Antiproliferative activity against human CAKI-1 cells assessed as cell growth inhibition. The series is classed as functional.
The next series has as its system DU-145. In words: Antiproliferative activity against human DU-145 cells assessed as cell growth inhibition. The series is classed as functional.
In the next series the test system is SF-295. In words: Antiproliferative activity against human SF-295 cells assessed as cell growth inhibition. The series is classed as functional.
In a further series the test system is SF-268. In words: Antiproliferative activity against human SF-268 cells assessed as cell growth inhibition. The series is classed as functional.
Another series has as its system UO-31. In words: Antiproliferative activity against human UO-31 cells assessed as cell growth inhibition. The series is classed as functional.
Another series concerns SNB-75. In words: Antiproliferative activity against human SNB-75 cells assessed as cell growth inhibition. The series is classed as functional.
For another series, the system named is CCRF-CEM. In words: Antiproliferative activity against human CCRF-CEM cells assessed as cell growth inhibition. The series is classed as functional.
For the next series, the system named is SF-539. In words: Antiproliferative activity against human SF-539 cells assessed as cell growth inhibition. The series is classed as functional.
For another series, the system named is RXF 393. In words: Antiproliferative activity against human RXF 393 cells assessed as cell growth inhibition. The series is classed as functional.
The test system of series [14] is NCI-H460. In words: Antiproliferative activity against human NCI-H460 cells assessed as cell growth inhibition. The series is classed as functional.
Another series deals with M14. In words: Antiproliferative activity against human M14 cells assessed as cell growth inhibition. The series is classed as functional.
The next series concerns NCI-H23. In words: Antiproliferative activity against human NCI-H23 cells assessed as cell growth inhibition. The series is classed as functional.
The subject of a further series is UACC-257. In words: Antiproliferative activity against human UACC-257 cells assessed as cell growth inhibition. The series is classed as functional.
The subject of a further series is MDA-MB-468. In words: Antiproliferative activity against human MDA-MB-468 cells assessed as cell growth inhibition. The series is classed as functional.
The next series has as its system ACHN. In words: Antiproliferative activity against human ACHN cells assessed as cell growth inhibition. The series is classed as functional.
Series [15] relates to HeLa. In words: Antiproliferative activity against human HeLa cells assessed as cell growth inhibition at 2 uM relative to control. The series is classed as functional. More on the design: scale not given: the % may be the effect or the level left.
Series [16] is described as follows: Cytotoxicity against human HEK293T cells assessed as cell growth inhibition.
Series [17] has as its system A549. In words: Antitumor activity against human A549 tumor spheroid cells assessed as reduction in size of tumor spheroid measured after 3 days by fluorescence microscopic analysis relative to control. The series is classed as functional. More on the design: scale not given: the % may be the effect or the level left. The note with it: time 3 day.

Chain of Matrix metalloproteinase-9 (P14780 whole entry): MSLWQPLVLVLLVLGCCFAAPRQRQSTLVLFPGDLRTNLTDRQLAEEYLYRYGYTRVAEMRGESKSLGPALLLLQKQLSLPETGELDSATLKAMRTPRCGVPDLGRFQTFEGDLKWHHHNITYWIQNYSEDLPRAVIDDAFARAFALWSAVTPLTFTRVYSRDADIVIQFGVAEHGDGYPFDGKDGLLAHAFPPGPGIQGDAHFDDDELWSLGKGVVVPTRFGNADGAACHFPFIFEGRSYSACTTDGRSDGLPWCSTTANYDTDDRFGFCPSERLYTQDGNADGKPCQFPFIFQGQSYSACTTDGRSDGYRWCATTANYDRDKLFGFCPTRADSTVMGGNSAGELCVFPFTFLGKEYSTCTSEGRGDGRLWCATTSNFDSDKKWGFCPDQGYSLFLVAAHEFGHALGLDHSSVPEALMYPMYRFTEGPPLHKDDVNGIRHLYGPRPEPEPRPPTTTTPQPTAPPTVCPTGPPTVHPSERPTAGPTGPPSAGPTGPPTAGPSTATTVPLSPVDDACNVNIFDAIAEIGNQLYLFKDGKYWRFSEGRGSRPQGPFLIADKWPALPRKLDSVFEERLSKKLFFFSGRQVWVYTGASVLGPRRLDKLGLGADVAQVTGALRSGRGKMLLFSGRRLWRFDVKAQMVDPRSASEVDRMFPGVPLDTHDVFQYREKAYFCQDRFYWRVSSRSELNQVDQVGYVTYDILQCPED

`COC(=O)[C@]1([Se]c2ccccc2)C[C@]2(C)C(=O)[C@]1(C)C(c1ccccc1)=C2c1ccccc1`: the Activity result with HeLa [1] was “<=80%”.

Regarding `CC1(C)OB(c2ccc(C[N+](C)(CCCl)CCCl)cc2)OC1(C)C.[Br-]`, in the series with DNA [2], the K is 4.6 10^-5/s. In addition, the Activity in the series with SN12C was determined as 57%; with DNA [3] it was 43%; in the series with CAKI-1 [4], 66%; in the series with NCI-H460 [5] it was 85%; in the series with SR [6] it was 90%.

For `COc1cccc2c1C(=O)c1c(O)c3c(c(O)c1C2=O)C[C@@](O)(C(=O)CO)C[C@@H]3O[C@H]1C[C@H](NC(=O)OCc2ccc(B3OC(C)(C)C(C)(C)O3)cc2)[C@H](O)[C@H](C)O1`, the IC50 (as a rule, the concentration that gives 50% inhibition) in the series on MIA PaCa-2 was found to be 0.3 µM.

Consider `CCN(CC)c1ccc2c(c1)Oc1cc(OCc3ccc(B4OC(C)(C)C(C)(C)O4)cc3)c(COC(=O)OC3(CC)C(=O)OCc4c3cc3n(c4=O)Cc4cc5ccccc5nc4-3)cc1C21c2ccccc2CN1CCNC(=O)CCC(NC(=O)c1ccc(NCc2cnc3[nH]c(N)nc(=O)c3n2)cc1)C(=O)O` (stereo not drawn), for which the Activity in the series on WI-38 is recorded as 100%; in the series on KB, 70%.

As to `CC1(C)OB(c2ccc(COn3c(C(=O)NCc4ccc(-c5ccccc5)cc4)cccc3=O)cc2)OC1(C)C`, the Papp in series [7] came out at 6.35 ×10⁻⁶ cm/s. The IC50 in [8] was above 1000 µM; against Keap1/Nrf2 it was 0.0967 µM. For the same compound, the response in series [9] was half-maximal at 0.32 µM (EC50). In series [10], the bioavailability (in general, dose-corrected exposure relative to a reference, in per cent) came out at 68.1%.

Take `CCCCC/C=C\C/C=C\CCCCCCCC(=O)OCCOC(=O)CSCC(=O)OC(C(=O)OC1C[C@@]2(O)[C@@H](OC(=O)c3ccccc3)[C@@H]3[C@]4(OC(C)=O)CO[C@@H]4C[C@H](O)[C@@]3(C)C(=O)[C@H](OC(C)=O)C(=C1C)C2(C)C)C(NC(=O)c1ccccc1)c1ccccc1` (stereo partly drawn): the results for the half-maximal inhibitory concentration (IC50) in the series on 4T1 and with A549 [11] were 0.127 µM and 0.176 µM, respectively.

As to `CC1(C)OB(c2ccc(COC(=O)Nc3ccc(N(CCCl)CCCl)cc3)cc2)OC1(C)C`, the GI50 in the series on MOLT-4, in the series with HOP-92, in the series with NCI-H522, in the series on UACC-62, in the series on LOX IMVI and in the series with SR [12] was below 1 µM each time. The concentration for 50% growth inhibition (GI50) in the series with MCF7, in the series on 786-0, with HL-60(TB), with CAKI-1 [13], in the series with DU-145 and with A549 [11] was below 1 µM throughout. Besides, the GI50 in the series with SF-295, with SF-268, in the series with UO-31, in the series with SNB-75, in the series on CCRF-CEM and in the series on SF-539 was below 1 µM in each case. For the same compound, the concentration for 50% growth inhibition (GI50) with RXF 393, with NCI-H460 [14], with M14, in the series with NCI-H23, in the series with UACC-257 and in the series on MDA-MB-468 was below 1 µM throughout. Further, the GI50 (as a rule, the concentration giving 50% growth inhibition) in the series on ACHN is below 1 µM. The Activity in the series with DNA [3] was found to be 47%.

As for `COc1cccc2c1C(=O)c1c(O)c3c(c(O)c1C2=O)C[C@@](O)(C(=O)CO)C[C@@H]3O[C@H]1C[C@H](N)[C@H](O)[C@H](C)O1` [DOXORUBICIN], in the series on HeLa [15], the Activity is 20%.

Regarding `CC1(C)OB(c2ccc(COC(=O)ONC(=O)CCCCCCC(=O)Nc3ccccc3)cc2)OC1(C)C`, the half-maximal effective concentration (EC50) (usually the concentration needed to bring the measured effect to its halfway point) in series [16] is above 1 µM. Besides, the Activity with A549 [17] is listed as 80%.

On to `O=C(CCCCCCC(=O)Nc1ccccc1)NO` [VORINOSTAT], for which the Activity with A549 [17] amounted to 50%.

`CC1(C)OB(c2ccc(COc3c(C(=O)NCc4ccc(-c5ccccc5)cc4)occc3=O)cc2)OC1(C)C`: the IC50 in series [8] was above 1000 µM.
